Experiment [1] addresses T1, RL2376-CY (Rhizobium leguminosarum, UniProt Q1MGQ3).
T1 sequence (Q1MGQ3 24-320): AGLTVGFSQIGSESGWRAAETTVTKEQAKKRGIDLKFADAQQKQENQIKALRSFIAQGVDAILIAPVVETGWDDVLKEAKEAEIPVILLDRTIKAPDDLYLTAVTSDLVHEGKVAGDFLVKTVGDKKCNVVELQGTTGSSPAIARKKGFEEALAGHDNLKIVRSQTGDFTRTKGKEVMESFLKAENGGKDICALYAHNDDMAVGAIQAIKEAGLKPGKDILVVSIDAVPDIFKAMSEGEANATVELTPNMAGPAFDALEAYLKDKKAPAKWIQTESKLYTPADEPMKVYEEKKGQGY
The experiment in a line: FRET biosensor RL2376-CY, in vitro ligand titration. The class given is binding. The method, then:
(§1) Ligand-induced FRET ratio changes of purified FRET biosensor were screened using a LS55 luminescence spectrometer (PerkinElmer Instruments). Excitation (ex.) was at (λ/slit width) 433/10 nm (CFP) or 549/10 nm (OFP). Emission (em.) was measured at 475/10 nm (CFP), 527/10 nm (YFP), 573/10 nm (OFP) and 644/10 nm (RFP). To confirm that Aphrodite and mKate2 were properly folded their fluorescence was individually tested by direct excitation at 510/6 nm and 588/10 nm respectively.
(§2) Affinity constants (Kd) of FRET biosensors with specific ligands were established using a monochromator microplate reader (Safire, Tecan, Switzerland; CFP ex.: (λ\bandwidth) 433/12 nm, em.: 475/12 nm; YFP em.: 527/12 nm. OFP ex.: 533/12 nm, em.: 563/12 nm; RFP em.: 615/12 nm). Proteins were diluted to give relative fluorescence units (RFU) in the detection range of 30,000 to 50,000 RFU at a gain of 90 to 100, and then were added to a dilution series (10^−3 to 10^−11 M) of ligand in Tris-HCl (pH 8.5, 50 mM). The change in relative emission intensities at 527/477 nm (YFP/CFP) or 615/563 nm (RFP/OFP) was used to determine Kd by fitting the titration curves to a single-site-binding isotherm: [drawing 1] with: R, ratio; Rapo, ratio without ligand; Rsat, ratio at saturation of ligand; n, number of equal binding sites; [L], ligand concentration. Non-linear regression was used to fit the curves using SigmaPlot 11 (Systat Software Inc.) (Hill equation, 4 Parameters, b = 1). All measurements were done in quadruplicate.

Experiment [2] deals with genes encoding the ABC-transporter (RL2376-9). Conditions: RL2376, Table 1; cited from earlier work.
Experiment [3] has as its system RL2376-RO. The experiment is described as follows: RL2376-RO, FRET ratio change on ligand. The class given is binding, Rhizobium leguminosarum. The method, then:
as §1
as §2, with “Non-linear regression was used to fit the curves using SigmaPlot 11 (Systat Software Inc.) (Hill equation, 4 Parameters, b = 1). All measurements were done in quadruplicate.” left out

Experiment [4] concerns the target YtfQ. Set-up: method as in PMID 19744923. Conditions: YtfQ from E. coli; cited from earlier work.
Experiment [5] has as its system SMb20036 FBS-RO version. The experiment is described as follows: FBS-RO version of SMb20036 biosensor, FRET ratio change on ligand. The class given is binding, Sinorhizobium meliloti. The settings on record: FBS-RO version (RFP/OFP) of SMb20036. The method, then: as §1
as §2, with “Non-linear regression was used to fit the curves using SigmaPlot 11 (Systat Software Inc.) (Hill equation, 4 Parameters, b = 1). All measurements were done in quadruplicate.” left out

The target in experiment [6] is SMb20036-CY (Sinorhizobium meliloti, UniProt Q92XC3). The experiment in a line: biochemical. The class given is binding. The method, then: as §1, §2
Experiment [7] has as its target T2, eCFP-MglB-Aphrodite fusion protein (Escherichia coli, UniProt P0AEE5, F39A).
T2 construct: MglB core from pFLIPglu600µΔ13 - SpeI - BD cloning in pCYS - For; made in house; host or cells: E. coli Rosetta2
The settings on record: MglB sensors, depended on linker length; cited from earlier work.

The target of experiment [8] is SMc04259-CY (Sinorhizobium meliloti, UniProt Q92P64). The experiment is described as follows: FRET biosensor SMc04259-CY, in vitro ligand titration. It is filed as binding. Conditions: SMc04259-CY. The method, then:
as §1, §2

Experiment [9] concerns the target T2, eCFP-MglB-Aphrodite fusion protein. The experiment is described as follows: Validation of pCYS with glucose binding protein MglB FRET fusion. Conditions: purified eCFP-MglB-Aphrodite from pLMB240 (pCYS). The method, then:
The FRET vector pCYS was tested by inserting the glucose binding protein from Escherichia coli (MglB). This SBP was reported to have a FRET Δ ratio ranging from −8% to −28% upon binding of glucose that depended on linker length. The purified eCFP-MglB-Aphrodite fusion protein from pLMB240 (Table S1) gave a FRET Δ ratio of −19%, thus validating this vector and the choice of short linkers (of four and three amino acids) which we had incorporated into its design (Fig. 1B).
as §1

Each structure is given as a SMILES string.

T2 sequence (P0AEE5 24-332 F39A limits assumed): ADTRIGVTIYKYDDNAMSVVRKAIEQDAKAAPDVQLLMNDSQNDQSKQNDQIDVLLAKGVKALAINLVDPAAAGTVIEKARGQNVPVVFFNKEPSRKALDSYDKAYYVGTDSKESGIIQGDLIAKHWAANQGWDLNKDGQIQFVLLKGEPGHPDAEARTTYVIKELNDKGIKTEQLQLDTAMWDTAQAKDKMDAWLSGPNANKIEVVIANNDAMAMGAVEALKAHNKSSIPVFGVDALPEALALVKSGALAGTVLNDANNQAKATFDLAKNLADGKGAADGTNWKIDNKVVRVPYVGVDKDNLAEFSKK
Chain of SMb20036-CY (Q92XC3 entry or part of it): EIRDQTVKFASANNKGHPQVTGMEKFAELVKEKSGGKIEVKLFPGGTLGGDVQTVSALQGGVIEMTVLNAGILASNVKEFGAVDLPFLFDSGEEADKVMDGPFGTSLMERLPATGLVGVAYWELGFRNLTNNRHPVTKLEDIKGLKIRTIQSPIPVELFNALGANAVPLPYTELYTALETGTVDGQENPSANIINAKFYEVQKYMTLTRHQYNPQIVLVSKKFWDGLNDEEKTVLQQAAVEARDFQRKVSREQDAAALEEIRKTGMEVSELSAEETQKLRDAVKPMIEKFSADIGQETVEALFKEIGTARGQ
Chain of SMc04259-CY (Q92P64 entry or part of it): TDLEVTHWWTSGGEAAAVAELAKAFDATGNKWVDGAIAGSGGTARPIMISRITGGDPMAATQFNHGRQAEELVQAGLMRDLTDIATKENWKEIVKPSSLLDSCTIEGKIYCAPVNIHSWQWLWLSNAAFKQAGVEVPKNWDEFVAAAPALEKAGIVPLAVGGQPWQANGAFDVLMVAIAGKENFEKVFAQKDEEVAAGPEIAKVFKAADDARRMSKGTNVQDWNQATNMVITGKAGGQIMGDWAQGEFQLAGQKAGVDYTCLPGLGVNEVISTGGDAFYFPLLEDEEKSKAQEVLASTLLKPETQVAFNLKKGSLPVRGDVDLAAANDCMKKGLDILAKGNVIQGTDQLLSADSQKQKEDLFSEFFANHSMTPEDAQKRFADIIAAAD

`O=C[C@H](O)[C@@H](O)[C@@H](O)[C@H](O)CO` [D-galactose]: the Kd in experiment [1] (pCYS (pLMB394), Tris-HCl pH 8.5, read-out: Kd) is 5.3 µM; in experiment [4], 1.7 ± 0.3 µM. Also, the “Inducer of gene expression (fold change)” value in experiment [2] is “D-galactose (2.6) fold”. Moreover, the “change in FRET ratio on binding ligand” value in experiment [3] is listed as “no change in FRET ratio”.
Turning to `O=C(O)[C@]1(O)C[C@@H](O)[C@@H](O)[C@H](O)C1` [D-quinic acid], the “change in FRET ratio on binding ligand” value in experiment [5] is reported as “no change in FRET ratio”. The “difference in the affinity for D-quinic acid compared with that for shikimic acid” value in experiment [6] is reported as > 15,000 fold. In experiment [6] (pCYS (pLMB229), Tris-HCl pH 8.5), the Kd is 0.0059 µM.
As for `OC[C@H]1OC(O)[C@H](O)[C@@H](O)[C@@H]1O` (some centres unmarked) [glucose], the “FRET Δ ratio upon binding of glucose” value in experiment [7] is −8% to −28%. Besides, the “change in FRET ratio on addition of compound” value in [1] was “no change in FRET ratio”. Further, the “change in FRET with compound” value in experiment [8] was “no change in FRET”. Moreover, the “FRET Δ ratio” value in [9] is −19%.

For orientation: Kd means the free concentration of one partner at which half of the binding sites on the other are occupied at equilibrium, for simple one-to-one binding.

(Values after article PMC3454389, “Mining the Sinorhizobium meliloti Transportome to Develop FRET Biosensors for Sugars, Dicarboxylates and Cyclic Polyols” (PLoS ONE, 2012).)
